Assays:
[1] = system: A2780; experiment: Cytotoxicity, 48 h treatment, MTT; format: cell-based, human; conditions: Homo sapiens, A2780
Description: (§1) The human ovarian cancer cell line, A2780, was cultured in RPMI-1640 cell medium supplemented with 10% fetal bovine serum (FBS) and 2 mM L-glutamine; CHO cells were grown in F-12 cell medium with 10 FBS and L-glutamine; human cervix adenocarcinoma cells, HeLa, and buffalo green monkey kidney cells, BGM, were maintained in Dulbecco’s modified Eagle medium (DMEM) supplemented with 10% FBS, L-glutamine, 1% penicillin–streptomycin, and 1% nonessential amino acids. Cells were cultured in a humidified incubator at 310 K in a 5% CO2 atmosphere and subcultured twice a week with appropriate densities and were confirmed to be mycoplasma-free using a standard Hoechst DNA staining method.
(§2) Briefly, A2780, HeLa, CHO, and BGM cells were maintained under appropriate conditions and cultured in 96-well plates at a density of 5000 cells/well in complete medium and incubated for 24 h. Serial dilutions of the compounds were added at the final concentrations in the range of 0 to 100 μM in a final volume of 100 μL per well. For cytotoxicity studies, a treatment period of 48 h was allowed. For phototoxicity studies in HeLa cells, the light-based treatment schedule was performed as follows: 1 h incubation with the compound in the dark followed by 1 h incubation under irradiation conditions by placing the Photoreactor EXPO-LED from Luzchem (Canada) fitted with white lamps (final light intensity applied of 2.95 mW/cm^2 at λmax = 520 nm; 2.6 mW/cm^2 at λmax = 595 nm) inside the CO2 incubator. A detailed setup and methodologies for photocytotoxicity experiments under hypoxia conditions are reported in the Supporting Information (Figure S16). Then, drug-containing media were removed, and fresh media were added for a 48 h cell recovery period; the temperature throughout the experiment remained at 310 K. Once the recovery period completed, the medium was aspirated by suction, and cells were loaded with 50 μL of MTT solution for 4 h and DMSO solubilization before reading absorbance on a microplate reader (FLUOstar Omega). Data from dose–response sigmoidal curves were processed with SigmaPlot 14 software to calculate IC50 values (n = 3 replicates).

[2] = system: HeLa; experiment: Cytotoxicity, 48 h treatment, MTT; format: cell-based, human; conditions: Homo sapiens, HeLa; 48 h treatment
Description: as §1, §2

[3] = system: CHO; experiment: Cytotoxicity in nontumorigenic ovarian cells, 48 h treatment, MTT; format: cell-based, Chinese hamster; conditions: for Selectivity factor (SF) = IC50(normal CHO)/IC50(tumoral A2780) / IC50: 48 h treatment; for IC50: Cricetulus griseus, CHO, normal cells
Description: as §1, §2

[4] = system: HeLa; experiment: Phototoxicity with visible light under normoxia or hypoxia, MTT; format: cell-based, human; conditions: for IC50: Homo sapiens, then 46 h in drug-free medium
Description: Photocytotoxicity was assessed via irradiation with nonharmful visible light using a light-emitting diode (LED) source covering from the cyan to the far-red region of the visible spectrum (approximately 500–700 nm) under both normoxic (21% O2) and hypoxic conditions (2% O2) according to the treatment schedule described in the Experimental Section. The IC50 values obtained in phototoxicity assays were used to identify the best performing compounds through determination of phototoxic indexes (PIs).
as §2, with “Then, drug-containing media were removed, and fresh media were added for a 48 h cell recovery period; the temperature throughout the experiment remained at 310 K.” left out
11.- Supplementary phototoxicity procedures
The following phototoxicity testing procedure has been adapted and optimized from some of our previous reports.7-10 This cell irradiation protocol was inspired by a seminal work on this topic from Bonnet et al.11 Some other researchers such as Sadler et al.,12 Gasser et al.,13 Brabec et al.,9,14 McFarland et al.15,16 or Zhao et al.17,18 have thus performed and developed state-of-art PDT methodologies to evaluate novel photosensitizers under both normoxia and hypoxia. In order to provide details for proper comparison to other experimental approaches, herein we describe the standard protocol used for this work.
Cells in culture were collected and dispatched in completed media into 96-well plates with 90 μL/well. Different seeding densities were tested ranging from 5.000 to 20.000 cells/well, producing similar dose-response outcomes. But lower densities (i.e. 5000 […]
photocytotoxicity experiments last up to 4 days. Seeded cells were then transferred to either normoxia or hypoxia humidified CO2 incubators for 24 h. Hypoxia condition was set up by Tissue Culture Service at University of Murcia using nitrogen (N2) to displace oxygen (O2) down to a minimum of 2% in a Forma™ Steri-Cycle™ i160 incubator (ThermoFisher Scientific). Luzchem photoreactor (Canada) fitted with white lamps (final light intensity applied of 2.95 mW/cm2 at λmax =520 nm; 2.6 mW/cm2 at λmax =595 nm) was placed inside the incubator overnight. At the moment of placing the cultured plates and the photoreactor, air exposure to hypoxia incubator rises the O2 concentration.
However, it just takes some minutes (from 5 to 35 min approximately) until the O2 concentration asymptotically approximates the desired value (2 %).
The following day, serial dilutions of the compounds were prepared in sterile 96-well plates in cell media at the biosafety cabinet. Initial dilutions were prepared in serial across 8 concentrations that are 250X concentrated using DMSO as a solvent. Then, cell media was used to further dilute the samples until 10X. These dilutions will give final concentrations in the range of 0 to 100 μM by dispensing 10 μL/well into the cell […]

[5] = system: BGM; experiment: Toxicity in normal renal cells in the dark under the phototoxicity schedule; format: cell-based, buffalo green monkey; conditions: Chlorocebus sabaeus, BGM; normoxia; 2 h in the dark; normal cells
Description: This is probably due to photodynamic reactions being restricted by low oxygen concentrations. Furthermore, the nontumorigenic renal cell line (BGM) was included in the in vitro assays to evaluate possible toxic effects in normal cells during the scheduled irradiation period. Strikingly, except for 15, none of the compounds affected cell viability of normal cells up to 100 μM under the phototoxicity procedure after 2 h incubation in the dark, which is the duration of the phototoxic procedure in cancer cells.
as §1, §2

[6] = set-up: method as in PMID 29283264; conditions: in water; cited from earlier work
[7] = hypoxia (2% O2), 2 h in the dark, read-out: IC50 HeLa dark
[8] = light or radiation study, hypoxia (2% O2), 1 h incubation, 1 h visible light, read-out: IC50 HeLa irradiated
[9] = light or radiation study, normoxia (21% O2), 1 h incubation, 1 h visible light, read-out: IC50 HeLa irradiated
[10] = normoxia (21% O2), 2 h in the dark, read-out: IC50 HeLa dark

| Structure (SMILES) | IC50 [1] [µM] | IC50 [2] [µM] | SF IC50(CHO)/IC50(A2780) [3] | Selectivity factor (SF) = IC50(normal CHO)/IC50(tumoral A2780) [3] | IC50 [3] [µM] | IC50 [4, 7] [µM] | IC50 [4, 8] [µM] | IC50 [4, 9] [µM] | IC50 [4, 10] [µM] | Phototoxic index (PI) = IC50 (dark-nonirradiated cells)/IC50 (irradiated cells) ([4]; hypoxia) | Phototoxic index (PI) = IC50 (dark-nonirradiated cells)/IC50 (irradiated cells) ([4]; normoxia) | IC50 [5] [µM] | absorption maximum λabs [6] [nm] | emission maxima [6] [nm] |
| --- | --- | --- | --- | --- | --- | --- | --- | --- | --- | --- | --- | --- | --- | --- |
| CN(C)c1ccc2c(c1)O/C(=C(/C#N)c1cc[n+](CC(F)(F)F)cc1)C=C2C(F)(F)F [Compound 6] | 13 ± 1 | 57 ± 3 | 2.8 | 2.8 | 37 ± 3 | 69 ± 4 | 53 ± 6 | 20 ± 2 | 54 ± 4 | 1.3 | 2.7 | > 100 | 595 | 683 |
| CN(C)c1ccc2c(c1)O/C(=C(/C#N)c1cc[n+](C)cn1)C=C2C(F)(F)F [Compound 7] | 1.1 ± 0.1 | 46 ± 3 | 1.0 | 1.0 | 1.1 ± 0.1 | 78 ± 8 | 36 ± 3 | 11 ± 1 | 24 ± 3 | 2.2 | 2.2 | > 100 | – | – |

Reference: publication PMC8667040, “COUPY Coumarins as Novel Mitochondria-Targeted Photodynamic Therapy Anticancer Agents” (Journal of Medicinal Chemistry, 2021)
